The source of these data is patent US10626095B2, “Cyanotriazole compounds” (OTSUKA PHARMACEUTICAL CO., LTD., priority 2013, dated 2020).

Test [1] has as its system NaCT-CHO (CHO cells stably expressing human NaCT). As to the kind of experiment: Assay of the citric acid cycle activation ([1,5-14C]-citric acid, diffusion of [14C]-CO2). The settings on record: 1 hour incubation at 37° C. with [1,5-14C]-citric acid. Format: cell-based. In outline: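 NaCT-CHO cells (pME-CHO empty-vector cells for non-specific counts) were incubated 1 h at 37 °C in Na+-containing HEPES-Tris pH 7.4 with compound plus an equal volume of 0.4 mM [1,5-14C]-citric acid solution. Residual cell radioactivity was counted, [14C]-CO2 diffusion was taken as (Total−R)/(Total−NS)×100%, and EC50 was derived by regression.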

Test [2] concerns Zucker Diabetic Fatty (ZDF) rat. In words: Meal load test in type 2 diabetic model rats (postprandial blood glucose). Format: in vivo. Details: unit not given here. The settings on record: ZDF rats fasted overnight, oral 10 mg/kg in 5% Arabia gum, blood glucose one hour after meal loading (50 kcal/kg). As to the method:
Effects on Type 2 Diabetes: Meal Load Test
To evaluate whether a cyanotriazol compound improves diabetes or not, especially related to postprandial blood glucose, meal load test was performed using one of type 2 diabetic model rats, the Zucker Diabetic Fatty (ZDF) rat (Charles river, Japan). About 24 animals fasted overnight (17 h) were taken blood samples from the tail veins, and measured blood glucose levels (Pre BG) and body weights (BW). Proper animals were selected and divided into […] (n=6) based on the Pre BG and BW using SAS Statistical Analysis System (SAS institute Japan Ltd. Release 9.1). The compounds to be tested (10 or 30 mg/kg body weight in 5% Arabia gum) or Arabia gum solution only (vehicle group) were orally administrated via gavage two hours prior to or just before meal loading (50 kcal/kg body weight). The meal suspension was prepared by mixing purified AIN-93G (Norsan Corp, Yokohama, Japan) and distilled water (2:3, w/v). One-hour after meal loading, blood glucose (BG1h) of each animal was measured. Effectiveness of each compound was shown by ? BG1h (BG1h difference between compound group and vehicle group). Although a set of 24 animals was used several times (from 13 weeks to 21 weeks of age), at least a one-week interval was placed from one to another test.

pEC50: −log10 of the molar value.

In turn, `N#Cc1[nH]nnc1-c1cc(OCc2cc(C(F)(F)F)ccc2C(F)(F)F)cc(OC(F)(F)F)c1` [Example 504, 5-[3-(2,5-bis-trifluoromethyl-benzyloxy)-5-trifluoromethoxy-phenyl]-3H-[1,2,3]triazole-4-carbonitrile] had a pEC50 in test [1] of 5.83. The “BG1h (BG1h difference between compound group and vehicle group)” value in test [2] is listed as −69.1.

Molecule `N#Cc1[nH]nnc1-c1cc(/C=C/c2ccc(F)cc2)cc(OC(F)(F)F)c1` [Example 639, 5-{3-[(E)-2-(4-fluoro-phenyl)-vinyl]-5-trifluoromethoxy-phenyl}-3H-[1,2,3]triazole-4-carbonitrile] showed a pEC50 in test [1] of 5.92. The “BG1h (BG1h difference between compound group and vehicle group)” value in test [2] is −58.5.

Turning to `N#Cc1[nH]nnc1-c1cccc(COc2cc(C(F)(F)F)ccn2)c1` [Example 55, 5-[3-(4-trifluoromethyl-pyridin-2-yloxymethyl)-phenyl]-3H-[1,2,3]triazole-4-carbonitrile], the pEC50 in test [1] was 6.19. Further, the “BG1h (BG1h difference between compound group and vehicle group)” value in test [2] is −110.2.

`N#Cc1[nH]nnc1-c1csc(-c2cccc(OC(F)(F)F)c2)n1` [Example 79, 5-[2-(3-trifluoromethoxy-phenyl)-thiazol-4-yl]-3H-[1,2,3]triazole-4-carbonitrile] showed a pEC50 in test [1] of 6.21. Also, the “BG1h (BG1h difference between compound group and vehicle group)” value in test [2] was −51.0.

As for `CCc1sc(-c2ccc(C(F)(F)F)cn2)nc1-c1nn[nH]c1C#N` [Example 100], the pEC50 in test [1] was 6.27. Besides, the “BG1h (BG1h difference between compound group and vehicle group)” value in test [2] is reported as −100.5.

Molecule `N#Cc1[nH]nnc1-c1cccc(/C=C/c2ccc(C(F)(F)F)cc2)c1` [Example 617, 5-{3-[(E)-2-(4-trifluoromethyl-phenyl)-vinyl]-phenyl}-3H-[1,2,3]triazole-4-carbonitrile] gave a pEC50 in test [1] of 6.32. Also, the “BG1h (BG1h difference between compound group and vehicle group)” value in test [2] is reported as −113.3.

Molecule `N#Cc1[nH]nnc1-c1csc(-c2ccc(Cl)c(Cl)c2)n1` [Example 77, 5-[2-(3,4-dichloro-phenyl)-thiazol-4-yl]-3H-[1,2,3]triazole-4-carbonitrile] had a pEC50 in test [1] of 6.04. Moreover, the “BG1h (BG1h difference between compound group and vehicle group)” value in test [2] was −61.3.

Molecule `N#Cc1[nH]nnc1-c1cc(Cl)cc(-c2cc(C(F)(F)F)cc(C(F)(F)F)c2)c1` [Example 275, 5-(5-chloro-3′,5′-bis-trifluoromethyl-biphenyl-3-yl)-3H-[1,2,3]triazole-4-carbonitrile] had a pEC50 in test [1] of 5.98. Moreover, in test [2], the “BG1h (BG1h difference between compound group and vehicle group)” value is recorded as −83.3.

With `N#Cc1[nH]nnc1-c1cc(/C=C/c2ccc(F)cc2F)cc(C(F)(F)F)c1` [Example 645, 5-{3-[(E)-2-(2,4-difluoro-phenyl)-vinyl]-5-trifluoromethyl-phenyl}-3H-[1,2,3]triazole-4-carbonitrile], the pEC50 in test [1] is 5.96. Moreover, the “BG1h (BG1h difference between compound group and vehicle group)” value in test [2] is given as −121.6.

For `N#Cc1[nH]nnc1-c1cc(OC(F)(F)F)cc(-c2ccc3c(c2)OC(F)(F)O3)c1` [Example 934, 5-[3-(2,2-difluoro-benzo[1,3]dioxol-5-yl)-5-trifluoromethoxy-phenyl]-3H-[1,2,3]triazole-4-carbonitrile], the pEC50 in test [1] is 6.29. Besides, the “BG1h (BG1h difference between compound group and vehicle group)” value in test [2] is on record as −87.2.

For the molecule `N#Cc1[nH]nnc1-c1ccc(/C=C/c2cccc(C(F)(F)F)c2)o1` [Example 137, 5-{5-[(E)-2-(3-trifluoromethyl-phenyl)-vinyl]-furan-2-yl}-3H-[1,2,3]triazole-4-carbonitrile], the pEC50 in test [1] was 6.24. In test [2], the “BG1h (BG1h difference between compound group and vehicle group)” value is −162.6.

`Cc1cc(/C=C/c2ccc(F)cc2)cc(-c2nn[nH]c2C#N)c1` [Example 627, 5-{3-[(E)-2-(4-fluoro-phenyl)-vinyl]-5-methyl-phenyl}-3H-[1,2,3]triazole-4-carbonitrile] gave a pEC50 in test [1] of 6.13. Besides, in test [2], the “BG1h (BG1h difference between compound group and vehicle group)” value was −85.2.

On to `N#Cc1[nH]nnc1-c1cccc(OCc2cc(C(F)(F)F)ccc2C(F)(F)F)c1` [Example 60, 5-[3-(2,5-bis-trifluoromethyl-benzyloxy)-phenyl]-3H-[1,2,3]triazole-4-carbonitrile], for which the pEC50 in test [1] was 6.52. Besides, the “BG1h (BG1h difference between compound group and vehicle group)” value in test [2] was −132.0.

`N#Cc1[nH]nnc1-c1cccc(-c2cc(F)cc(C(F)(F)F)c2)c1` [Example 220, 5-(5′-fluoro-3′-trifluoromethyl-biphenyl-3-yl)-3H-[1,2,3]triazole-4-carbonitrile] gave a pEC50 in test [1] of 6.46. Besides, the “BG1h (BG1h difference between compound group and vehicle group)” value in test [2] is on record as −85.6.

Turning to `CCc1sc(-c2ccc(Cl)cc2F)nc1-c1nn[nH]c1C#N` [Example 1248, 5-[2-(4-chloro-2-fluoro-phenyl)-5-ethyl-thiazol-4-yl]-3H-[1,2,3]triazole-4-carbonitrile], the pEC50 in test [1] was 5.52. Besides, the “BG1h (BG1h difference between compound group and vehicle group)” value in test [2] is on record as −82.2.

In turn, `N#Cc1[nH]nnc1-c1cc(/C=C/c2cccc(C(F)(F)F)n2)cc(C(F)(F)F)c1` [Example 51, 5-{3-trifluoromethyl-5-[(E)-2-(6-trifluoromethyl-pyridin-2-yl)-vinyl]-phenyl}-3H-[1,2,3]triazole-4-carbonitrile] gave a pEC50 in test [1] of 6.12. For the same molecule, the “BG1h (BG1h difference between compound group and vehicle group)” value in test [2] is −79.0.

Regarding `N#Cc1[nH]nnc1-c1cc(N2CCCCC2)nc(-c2ccccc2)n1` [Example 1672, 5-(2-phenyl-6-(piperidin-1-yl)-pyrimidin-4-yl)-3H-[1,2,3]triazole-4-carbonitrile], the pEC50 in test [1] is 5.89. Also, the “BG1h (BG1h difference between compound group and vehicle group)” value in test [2] is listed as −94.8.

In test [1], `N#Cc1[nH]nnc1-c1cccc(/C=C/c2cc(C(F)(F)F)ccn2)c1` [Example 50, 5-{3-[(E)-2-(4-trifluoromethyl-pyridin-2-yl)-vinyl]-phenyl}-3H-[1,2,3]triazole-4-carbonitrile] gave a pEC50 of 6.36. In addition, the “BG1h (BG1h difference between compound group and vehicle group)” value in test [2] was −120.0.

`N#Cc1[nH]nnc1-c1cccc(/C=C/c2ccc(F)cc2)c1` [Example 640, 5-{3-[(E)-2-(4-fluoro-phenyl)-vinyl]-phenyl}-3H-[1,2,3]triazole-4-carbonitrile]: in test [1], the pEC50 was 6.17. For the same molecule, the “BG1h (BG1h difference between compound group and vehicle group)” value in test [2] was −62.0.

Turning to `CCOc1cc(/C=C/c2cccc(C(F)(F)F)c2)cc(-c2nn[nH]c2C#N)c1` [Example 644, 5-{3-ethoxy-5-[(E)-2-(3-trifluoromethyl-phenyl)-vinyl]-phenyl}-3H-[1,2,3]triazole-4-carbonitrile], in test [1], the pEC50 is 5.63. The “BG1h (BG1h difference between compound group and vehicle group)” value in test [2] is reported as −131.0.

Consider `N#Cc1[nH]nnc1-c1nc(-c2cccc(C(F)(F)F)c2)sc1Cl` [Example 108, 5-[5-chloro-2-(3-trifluoromethyl-phenyl-phenyl)-thiazol-4-yl]-3H-[1,2,3]triazole-4-carbonitrile], for which the pEC50 in test [1] was 6.38. Besides, the “BG1h (BG1h difference between compound group and vehicle group)” value in test [2] is reported as −101.9.

`CCOc1cc(-c2nccc(C(F)(F)F)n2)cc(-c2nn[nH]c2C#N)c1` [Example 944, 5-[3-ethoxy-5-(4-trifluoromethyl-pyrimidin-2-yl)-phenyl]-38-[1,2,3]triazole-4-carbonitrile] showed a pEC50 in test [1] of 6.00. The “BG1h (BG1h difference between compound group and vehicle group)” value in test [2] is on record as −125.1.

`CC(C)c1oc(-c2ccc(Cl)cc2)nc1-c1nn[nH]c1C#N` [Example 122, 5-[2-(4-chloro-phenyl)-5-isopropyl-oxazol-4-yl]-3H-[1,2,3]triazole-4-carbonitrile] showed a pEC50 in test [1] of 6.29. The “BG1h (BG1h difference between compound group and vehicle group)” value in test [2] is recorded as −75.5.

The molecule `N#Cc1[nH]nnc1-c1cc(Cl)cc(-c2ccc(OC(F)(F)F)cc2)c1` [Example 29, 5-(5-chloro-4′-trifluoromethoxy-biphenyl-3-yl)-3H-[1,2,3]triazole-4-carbonitrile] had a pEC50 in test [1] of 6.17. Moreover, the “BG1h (BG1h difference between compound group and vehicle group)” value in test [2] was −37.3.

`N#Cc1[nH]nnc1-c1cccc(-c2nccc(C(F)(F)F)n2)c1` [Example 21, 5-[3-(4-trifluoromethyl-pyrimidin-2-yl)-phenyl]-3H-[1,2,3]triazole-4-carbonitrile]: the pEC50 in test [1] was 6.11. Besides, the “BG1h (BG1h difference between compound group and vehicle group)” value in test [2] is −95.7.

For `COc1cc(-c2cc(C(F)(F)F)ccn2)cc(-c2nn[nH]c2C#N)c1` [Example 15, 5-[3-methoxy-5-(4-trifluoromethyl-pyridin-2-yl)-phenyl]-3H-[1,2,3]triazole-4-carbonitrile], the pEC50 in test [1] is 6.31. Also, the “BG1h (BG1h difference between compound group and vehicle group)” value in test [2] is on record as −50.5.

In the case of `N#Cc1[nH]nnc1-c1cccc(-c2cc(C(F)(F)F)ccn2)c1` [Example 790, 5-[3-(4-trifluoromethyl-pyridin-2-yl)-phenyl]-3H-[1,2,3]triazole-4-carbonitrile], in test [1], the pEC50 is 6.01. In test [2], the “BG1h (BG1h difference between compound group and vehicle group)” value is on record as −61.5.

Usually pEC50 stands for the negative decadic logarithm of the EC50, by convention in mol/L.
